Measured values published in ChEMBL document CHEMBL1201862, “PubChem BioAssay data set” (2004).
Values belong to the compound of their own block, whether it stands above or below them. The source made the active and inactive calls.

Key:
J774.A1 = assay: Confirmation of image-based Screening Assay for Inhibitors of Phagocytosis. [Related pubchem assays (depositor defined):AID1029, AID1643]; type: functional, cell-based; details: Mus musculus
[1] = target: T1, Polyadenylate-binding protein 1 (Homo sapiens, UniProt P11940); assay: PABP inhibition in translation initiation, SAR follow-up (AID 435018); type: functional
[2] = target: T2, Eukaryotic translation initiation factor 4H (Homo sapiens, UniProt Q15056); assay: inhibitors of translation initiation factor eIF4H – SAR follow-up (AID 435011); type: functional
[3] = target: T1, Polyadenylate-binding protein 1; assay: blockers of PABP interaction with poly(A) – biochemical, fluorescence polarization, […] (AID 2014)
[4] = target: T2, Eukaryotic translation initiation factor 4H; assay: eIF4H binding inhibition – biochemical, uHTS, fluorescence polarization, translation initiation inhibitor project, primary screen (AID 2012)
[5] = target: T3, Intestinal-type alkaline phosphatase (Homo sapiens, UniProt P09923); assay: human intestinal alkaline phosphatase activators, dose response, biochemical, luminescence, uHTS hits (AID 463120); type: functional
[6] = target: T3, Intestinal-type alkaline phosphatase; assay: activation of human intestinal alkaline phosphatase – biochemical, luminescent, uHTS hits, set 2, dose response (AID 488817); type: functional;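 further: potency of activators that raise enzyme activity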
[7] = target: T4, Alkaline phosphatase, tissue-nonspecific isozyme (Homo sapiens, UniProt P05186); assay: activation of tissue-nonspecific alkaline phosphatase – biochemical, TNAP isozyme, human IAP uHTS hits, selectivity assay for human IAP activator project, dose response (AID 488886); type: functional;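 further: potency of compounds raising TNAP activity as a selectivity check on IAP activators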
T4 sequence (P05186 whole entry): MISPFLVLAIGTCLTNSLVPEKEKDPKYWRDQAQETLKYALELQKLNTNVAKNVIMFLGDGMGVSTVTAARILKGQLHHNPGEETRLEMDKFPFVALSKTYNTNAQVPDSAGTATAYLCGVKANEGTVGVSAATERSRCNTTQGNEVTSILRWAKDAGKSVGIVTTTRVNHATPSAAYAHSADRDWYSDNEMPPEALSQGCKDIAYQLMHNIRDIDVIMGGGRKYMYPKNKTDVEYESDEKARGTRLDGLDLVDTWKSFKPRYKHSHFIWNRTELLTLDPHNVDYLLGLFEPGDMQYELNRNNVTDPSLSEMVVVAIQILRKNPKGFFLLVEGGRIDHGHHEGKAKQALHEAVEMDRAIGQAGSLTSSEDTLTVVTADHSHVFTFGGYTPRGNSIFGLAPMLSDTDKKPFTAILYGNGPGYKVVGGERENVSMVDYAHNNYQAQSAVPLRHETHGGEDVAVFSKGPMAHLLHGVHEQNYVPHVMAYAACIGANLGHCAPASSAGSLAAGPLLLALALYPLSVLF

[8] = target: T5, Intestinal-type alkaline phosphatase (Mus musculus, UniProt P24822); assay: PubChem AID 488874; type: functional
[9] = target: T6, Scavenger receptor class B member 1 (Mus musculus, UniProt Q61009); assay: mouse SR-BI DiI-HDL uptake blockers – ldlA[mSR-BI] cells, fluorescence, cherry pick, dose response (AID 493194); type: functional, cell-based;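 further: cellular uptake of fluorescent DiI-labeled HDL measured as cell fluorescence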
T6 sequence (Q61009 whole entry): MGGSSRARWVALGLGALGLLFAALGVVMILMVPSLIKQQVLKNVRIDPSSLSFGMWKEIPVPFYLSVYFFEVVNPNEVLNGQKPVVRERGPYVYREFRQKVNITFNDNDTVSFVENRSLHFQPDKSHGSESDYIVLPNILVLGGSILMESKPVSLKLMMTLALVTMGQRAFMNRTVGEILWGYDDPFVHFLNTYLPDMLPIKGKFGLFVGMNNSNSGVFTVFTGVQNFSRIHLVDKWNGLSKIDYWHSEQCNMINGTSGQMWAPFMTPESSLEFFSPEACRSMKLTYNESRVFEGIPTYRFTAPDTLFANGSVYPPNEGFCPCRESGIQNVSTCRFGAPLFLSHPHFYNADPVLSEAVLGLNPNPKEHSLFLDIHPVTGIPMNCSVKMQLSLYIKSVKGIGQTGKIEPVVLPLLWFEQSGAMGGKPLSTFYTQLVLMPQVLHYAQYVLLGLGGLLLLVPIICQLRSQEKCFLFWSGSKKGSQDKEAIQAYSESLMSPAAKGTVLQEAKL

Leucine aminopeptidase = target: T7, Leucine aminopeptidase (Plasmodium falciparum 3D7, UniProt Q8IL11); assay: P. falciparum M17LAP inhibitors, primary screen, biochemical, fluorogenic H-Leu-NHMec substrate, 1536-well (AID 1619); type: functional
T7 sequence (Q8IL11 whole entry): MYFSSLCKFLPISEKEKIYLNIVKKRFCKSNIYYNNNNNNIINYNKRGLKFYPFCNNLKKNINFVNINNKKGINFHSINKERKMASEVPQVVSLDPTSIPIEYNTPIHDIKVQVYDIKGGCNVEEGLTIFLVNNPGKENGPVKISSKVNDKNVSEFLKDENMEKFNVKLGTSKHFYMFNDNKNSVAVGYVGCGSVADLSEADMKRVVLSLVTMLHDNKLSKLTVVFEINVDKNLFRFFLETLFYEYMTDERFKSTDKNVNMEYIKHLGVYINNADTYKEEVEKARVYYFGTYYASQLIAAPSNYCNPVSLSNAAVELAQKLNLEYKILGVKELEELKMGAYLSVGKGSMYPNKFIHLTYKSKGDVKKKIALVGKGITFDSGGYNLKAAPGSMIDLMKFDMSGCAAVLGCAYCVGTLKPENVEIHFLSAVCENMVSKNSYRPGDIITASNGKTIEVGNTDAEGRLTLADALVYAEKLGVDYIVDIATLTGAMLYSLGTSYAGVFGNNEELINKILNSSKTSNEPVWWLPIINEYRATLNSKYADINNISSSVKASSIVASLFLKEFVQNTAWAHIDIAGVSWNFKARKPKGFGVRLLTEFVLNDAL

[10] = target: Induced myeloid leukemia cell differentiation protein Mcl-1 (Homo sapiens, UniProt Q07820); type: functional
[11] = target: T5, Intestinal-type alkaline phosphatase; assay: PubChem AID 488875; type: functional
[12] = target: E3 ubiquitin-protein ligase Mdm2/Protein Mdm4 (Homo sapiens, UniProt O15151+Q00987); assay: disruption of Mdm2/MdmX protein binding – luminescence detection, dose response (AID 504593); type: functional
[13] = viability of uninfected HEp-2 cells – cell-based, HTS, cytotoxicity control for RSV inhibitor project, dose response (AID 2410); type: functional; details: human respiratory syncytial virus
[14] = target: T8, Microphthalmia-associated transcription factor (Homo sapiens, UniProt O75030); assay: MITF Measured in Cell-Based System Using Plate Reader - 2084-01_Inhibitor_DoseNoFile_CherryPick_Activity_Set2. [Related pubchem assays (depositor defined):AID488944]; type: functional
T8 sequence (O75030 whole entry): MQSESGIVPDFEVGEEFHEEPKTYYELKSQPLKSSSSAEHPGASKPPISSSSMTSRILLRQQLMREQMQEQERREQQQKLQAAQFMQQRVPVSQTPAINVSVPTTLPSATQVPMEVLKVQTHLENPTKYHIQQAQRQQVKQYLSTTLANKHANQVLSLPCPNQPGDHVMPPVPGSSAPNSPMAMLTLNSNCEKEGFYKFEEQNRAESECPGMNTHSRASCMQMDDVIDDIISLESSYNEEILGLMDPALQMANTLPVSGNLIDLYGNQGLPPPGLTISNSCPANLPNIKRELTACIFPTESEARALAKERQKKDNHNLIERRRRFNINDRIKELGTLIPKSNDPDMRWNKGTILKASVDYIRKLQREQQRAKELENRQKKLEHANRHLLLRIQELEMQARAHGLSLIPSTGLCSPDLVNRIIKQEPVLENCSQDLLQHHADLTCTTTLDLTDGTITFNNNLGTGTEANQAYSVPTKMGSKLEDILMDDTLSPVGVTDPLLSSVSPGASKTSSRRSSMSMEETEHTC

[15] = target: T8, Microphthalmia-associated transcription factor; assay: reducers of TRPM1 reporter luminescence, concentration series – cell-based, SK-MEL-5, cherry-picked, set 4, MITF inhibitor project, dose response (AID 493102); type: functional
[16] = target: T8, Microphthalmia-associated transcription factor; assay: reducers of TRPM1 reporter luminescence, concentration series – cell-based, SK-MEL-5, cherry-picked, set 3, MITF inhibitor project, dose response (AID 493073); type: functional;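 further: SK-MEL-5 melanoma cells with luciferase driven by the MITF target TRPM1 promoter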

T3 sequence (P09923 whole entry): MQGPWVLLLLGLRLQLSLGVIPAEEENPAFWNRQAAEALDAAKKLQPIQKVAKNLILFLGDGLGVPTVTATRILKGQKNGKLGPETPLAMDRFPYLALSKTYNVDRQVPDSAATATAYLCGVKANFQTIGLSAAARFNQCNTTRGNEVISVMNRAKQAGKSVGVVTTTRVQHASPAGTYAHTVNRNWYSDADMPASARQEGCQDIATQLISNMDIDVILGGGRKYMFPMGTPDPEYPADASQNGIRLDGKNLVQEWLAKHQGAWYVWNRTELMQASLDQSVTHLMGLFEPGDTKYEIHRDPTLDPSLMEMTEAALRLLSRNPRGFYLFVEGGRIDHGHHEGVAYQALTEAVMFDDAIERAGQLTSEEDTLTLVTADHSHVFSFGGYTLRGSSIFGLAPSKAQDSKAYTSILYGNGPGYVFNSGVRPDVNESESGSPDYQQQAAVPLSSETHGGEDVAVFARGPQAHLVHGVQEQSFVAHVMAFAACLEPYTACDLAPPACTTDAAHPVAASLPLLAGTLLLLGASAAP
T5 sequence (P24822 whole entry): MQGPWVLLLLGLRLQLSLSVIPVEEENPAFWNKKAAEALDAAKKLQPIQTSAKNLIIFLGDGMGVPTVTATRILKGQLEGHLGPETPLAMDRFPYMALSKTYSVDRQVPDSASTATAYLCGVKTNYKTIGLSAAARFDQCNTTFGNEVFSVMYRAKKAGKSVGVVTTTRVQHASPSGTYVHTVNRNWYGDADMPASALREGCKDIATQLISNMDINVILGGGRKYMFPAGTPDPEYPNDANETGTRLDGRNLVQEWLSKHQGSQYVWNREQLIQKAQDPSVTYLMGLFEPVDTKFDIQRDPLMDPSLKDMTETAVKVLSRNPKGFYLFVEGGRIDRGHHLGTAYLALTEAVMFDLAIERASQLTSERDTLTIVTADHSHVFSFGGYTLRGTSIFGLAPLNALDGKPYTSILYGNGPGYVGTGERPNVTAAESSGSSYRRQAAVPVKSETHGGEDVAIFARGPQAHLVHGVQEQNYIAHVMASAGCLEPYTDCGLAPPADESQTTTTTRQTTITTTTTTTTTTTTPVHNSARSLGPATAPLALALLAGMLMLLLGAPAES
T1 sequence (P11940 whole entry): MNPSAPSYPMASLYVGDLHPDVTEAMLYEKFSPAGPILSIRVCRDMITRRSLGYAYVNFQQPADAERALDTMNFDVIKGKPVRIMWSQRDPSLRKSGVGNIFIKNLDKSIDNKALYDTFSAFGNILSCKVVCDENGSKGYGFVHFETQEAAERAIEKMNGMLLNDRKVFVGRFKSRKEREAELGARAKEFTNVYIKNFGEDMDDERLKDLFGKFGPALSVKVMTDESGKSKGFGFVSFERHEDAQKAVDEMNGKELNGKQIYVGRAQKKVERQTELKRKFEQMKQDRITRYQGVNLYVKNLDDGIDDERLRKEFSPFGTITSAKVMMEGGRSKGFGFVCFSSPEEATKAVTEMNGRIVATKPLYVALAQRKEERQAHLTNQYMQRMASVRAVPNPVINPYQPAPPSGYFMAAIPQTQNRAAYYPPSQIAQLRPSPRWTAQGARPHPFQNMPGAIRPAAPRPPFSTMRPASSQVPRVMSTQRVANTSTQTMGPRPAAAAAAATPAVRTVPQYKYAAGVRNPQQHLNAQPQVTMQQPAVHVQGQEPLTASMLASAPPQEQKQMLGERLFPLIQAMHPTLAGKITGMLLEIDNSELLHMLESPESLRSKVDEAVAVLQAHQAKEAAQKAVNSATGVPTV
Chain of Induced myeloid leukemia cell differentiation protein Mcl-1 (Q07820 whole entry): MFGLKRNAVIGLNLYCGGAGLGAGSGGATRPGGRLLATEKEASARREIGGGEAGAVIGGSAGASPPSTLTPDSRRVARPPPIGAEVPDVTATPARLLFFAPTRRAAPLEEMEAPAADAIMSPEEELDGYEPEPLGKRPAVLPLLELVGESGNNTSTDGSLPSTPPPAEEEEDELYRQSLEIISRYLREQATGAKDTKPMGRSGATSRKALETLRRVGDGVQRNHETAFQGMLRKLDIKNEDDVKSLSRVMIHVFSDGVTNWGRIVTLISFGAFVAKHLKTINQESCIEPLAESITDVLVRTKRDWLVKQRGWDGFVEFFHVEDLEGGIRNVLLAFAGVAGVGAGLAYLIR
Chain of E3 ubiquitin-protein ligase Mdm2/Protein Mdm4 (Q00987 whole entry): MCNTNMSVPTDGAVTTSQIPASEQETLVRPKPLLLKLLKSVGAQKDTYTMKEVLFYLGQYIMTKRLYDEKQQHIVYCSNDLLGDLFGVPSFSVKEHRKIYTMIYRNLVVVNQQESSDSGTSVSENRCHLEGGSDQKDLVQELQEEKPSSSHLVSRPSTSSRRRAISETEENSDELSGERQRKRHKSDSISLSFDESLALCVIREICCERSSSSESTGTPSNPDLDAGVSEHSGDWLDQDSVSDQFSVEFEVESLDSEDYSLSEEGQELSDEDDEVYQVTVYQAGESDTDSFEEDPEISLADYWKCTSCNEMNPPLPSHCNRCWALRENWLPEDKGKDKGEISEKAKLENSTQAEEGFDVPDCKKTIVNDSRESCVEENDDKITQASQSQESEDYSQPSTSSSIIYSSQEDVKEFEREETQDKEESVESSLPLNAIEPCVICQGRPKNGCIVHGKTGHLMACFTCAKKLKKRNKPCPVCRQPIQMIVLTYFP
Chain of E3 ubiquitin-protein ligase Mdm2/Protein Mdm4 (O15151 whole entry): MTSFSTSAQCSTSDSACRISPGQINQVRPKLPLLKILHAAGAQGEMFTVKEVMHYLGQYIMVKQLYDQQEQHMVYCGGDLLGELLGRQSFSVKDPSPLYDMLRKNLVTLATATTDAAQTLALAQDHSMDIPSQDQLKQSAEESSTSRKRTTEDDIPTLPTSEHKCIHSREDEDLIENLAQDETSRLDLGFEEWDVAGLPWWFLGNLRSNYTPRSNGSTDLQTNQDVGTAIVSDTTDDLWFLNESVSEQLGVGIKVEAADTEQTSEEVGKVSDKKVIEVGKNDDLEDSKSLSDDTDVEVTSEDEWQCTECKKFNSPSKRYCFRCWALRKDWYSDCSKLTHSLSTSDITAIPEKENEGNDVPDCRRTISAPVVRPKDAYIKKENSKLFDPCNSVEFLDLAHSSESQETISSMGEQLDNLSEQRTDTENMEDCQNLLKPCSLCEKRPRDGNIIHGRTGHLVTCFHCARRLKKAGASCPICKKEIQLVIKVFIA

EC50 [5]: 12.1 µM (active)
EC50 [6]: 16.4 µM (active)
EC50 [7]: 16.4 µM (active)
IC50 [8]: 74.2 µM (active)
SMILES: O=C(NNC(=S)NC(=O)c1ccccc1)c1cccnc1

AC50 [9]: 10.9 µM (active)
IC50 (Leucine aminopeptidase): 18 µM (active)
IC50 [10]: 3.83 µM (active)
SMILES: CC1CCc2c(sc(Nc3nc4c(F)cccc4s3)c2C(N)=O)C1 (stereo unspecified)

EC50 [5]: 11.4 µM (active)
EC50 [11]: > 100 µM (inactive)
EC50 [6]: 33 µM (active)
EC50 [7]: 22.9 µM (active)
SMILES: CC(C)Oc1ccc(C(=O)Nc2nnc[nH]2)cc1

AC50 [14]: > 350 µM (inactive)
AC50 [15]: > 350 µM (inactive)
AC50 [16]: > 350 µM (inactive)
SMILES: O=C(COC(=O)C1=COCCO1)Nc1c(F)cccc1F

Continued, compound first:

SMILES: Cc1ccc(Nc2nc(-c3c(C)nc4ccccn34)cs2)cc1
IC50 (J774.A1): < 0.05 µM (inactive)

SMILES: COc1cccc(CNC(=O)CSc2ccc(-c3ccco3)nn2)c1
IC50 [1]: > 100 µM (inactive)
IC50 [2]: > 100 µM (inactive)
IC50 [3]: > 100 µM (inactive)
IC50 [4]: 34.9 µM (active)

SMILES: Cc1cccn2c(=O)c3cc(C(=O)NCCc4ccccc4)c(=N)n(Cc4ccco4)c3nc12
IC50 [12]: 3.68 µM (active)
CC50 [13]: 15.5 µM (active)
